Test results as given in patent EP0801949A1, “Hypoglycemic quinone derivative” (Eisai Co., Ltd., priority 1996, dated 1997).

How the values were obtained:
Format in all cases: in vivo
[1] = system: KK-Ay/Ta mice; test: Blood sugar level in type-II diabetes model mice, oral dosing twice daily for 14 days; details: for Blood sugar level: male KK-Ay/Ta mice, average ± standard error, N=6
From the text: (§1) Use was made of 22-week old male KK-Ay/Ta mice (type-II diabetes model mice available from Clea Japan Inc.). Restricted feeding was effected such that the animals were starved from 9:00 a.m. to 5:00 p.m. daily through the experimental period.
(§2) (E)-3-[2-(5,6-Dimethoxy-3-methyl-1,4-benzoquinonyl)]-2-nonylpropenoic acid as a representative example of the compounds of the present invention was suspended in 0.5% methylcellulose (MC) and orally administered twice 9:00 a.m. and 5:00 p.m. daily for 14 days in accordance with the following schedule.
(§3) The 0.5% methylcellulose (MC) was administered to a control group in the same manner as above.
(§4) All blood specimens were collected from the cardal veins, and blood sugar and blood insulin levels were measured on the day preceding the administration (day 0) and 3 days (day 3), 7 days (day 7), 10 days (day 10) and 14 days (day 14) after the administration. Hemoglobin AIc (HbAIc) was measured on day 0 and day 14. The measurements of blood sugar level, blood insulin level and HbAIc were conducted by the use of Fuji Dry-Chem System 5500 (manufactured by Fuji Medical Systems Co., Ltd.), insulin measuring kit (EIA sandwich method, manufactured by Morinaga Seikagaku Kenkyusho) and DCA 2000 System (manufactured by Bayer Diagnosics), respectively. The results are expressed by the average ± standard error with respect to each group. The significant difference test as compared with the control group was performed by the Student t-test.

[2] = system: beagle; test: Single administration toxicity test in beagle (lethal dose); details: p.o., observed for 21 days
From the text: (§5) (E)-3-[2-(5,6-Dimethoxy-3-methyl-1,4-benzoquinonyl)]-2-nonylpropenoic acid was used as a test compound.

[3] = system: KK-Ay/Ta mice; test: Hemoglobin AIc (HbAIc) in type-II diabetes model mice, oral dosing twice daily for 14 days; details: 300 mg/Kg/day p.o. for 14 days, KK-Ay/Ta mice (Table 3)
From the text: as §1, §2, §3
as §4, with “The significant difference test as compared with the control group was performed by the Student t-test.” left out

[4] = system: SD rat; test: Single administration toxicity test in rat (lethal dose); details: observed for 14 days
From the text: as §5

In the case of `CCCCCCCCC/C(=C\C1=C(C)C(=O)C(OC)=C(OC)C1=O)C(=O)O` [invention compd., (E)-3-[2-(5,6-Dimethoxy-3-methyl-1,4-benzoquinonyl)]-2-nonylpropenoic acid], the “hypoglycemic effect (in words)” value ([1]; 300 mg/Kg/day p.o. for 14 days, KK-Ay/Ta mice, compared with the control group (Table 2, Fig. 1)) is reported as “excellent hypoglycemic effect”, the Blood sugar level ([1]; Day 0 (day preceding the administration, baseline)) is reported as 465.7 ± 21.51 mg/dL and the Blood sugar level ([1]; Day 0 (day preceding the administration, baseline), listed as the compound of the present invention) is reported as 465.7 ± 21.51 mg/dL. It also gave a Blood sugar level ([1]; Day 3, 300 mg/Kg/day p.o. (100 a.m. + 200 p.m.), 300 mg/kg/day) of 380.8 ± 52.42 mg/dL, a Blood sugar level ([1]; Day 3, 300 mg/Kg/day p.o. (100 a.m. + 200 p.m.), listed as the compound of the present invention, 300 mg/kg/day) of 380.8 ± 52.42 mg/dL and a Blood sugar level ([1]; Day 7, 300 mg/Kg/day p.o. (100 a.m. + 200 p.m.), 300 mg/kg/day) of 319.8 ± 27.49 mg/dL. For the same molecule, the Blood sugar level ([1]; Day 7, 300 mg/Kg/day p.o. (100 a.m. + 200 p.m.), listed as the compound of the present invention, 300 mg/kg/day) was 319.8 ± 27.49 mg/dL, the Blood sugar level ([1]; Day 10, 300 mg/Kg/day p.o. (100 a.m. + 200 p.m.), 300 mg/kg/day) was 334.3 ± 33.75 mg/dL and the Blood sugar level ([1]; Day 10, 300 mg/Kg/day p.o. (100 a.m. + 200 p.m.), listed as the compound of the present invention, 300 mg/kg/day) was 334.3 ± 33.75 mg/dL. The Blood sugar level ([1]; Day 14, 300 mg/Kg/day p.o. (100 a.m. + 200 p.m.), 300 mg/kg/day) was 280.2 ± 37.31 mg/dL, the Blood sugar level ([1]; Day 14, 300 mg/Kg/day p.o. (100 a.m. + 200 p.m.), listed as the compound of the present invention, 300 mg/kg/day) was 280.2 ± 37.31 mg/dL and the Lethal dose [2] was greater than 400 mg/kg. The “HbAIc change as compared with the control group (in words)” value [3] was “decrease trend”, the Lethal dose ([4]; i.v.) was greater than 60 mg/kg and the Lethal dose ([4]; p.o.) was 2000 mg/kg.
